Experimental data published in paper doi:10.1101/2023.11.24.568596v1 (biorxiv, 2023).
Blank lines part the entries; values can stand above or below the compound they belong to.

Key:
Conditions in all cases: binder
CHK2 = CHK2 (Homo sapiens, UniProt O96017)
CK1e = CK1e (Homo sapiens, UniProt P49674)
CK2a1 = CK2a1 (Homo sapiens, UniProt P68400)
DRAK2 = molecular target: T1, DRAK2 (Homo sapiens, UniProt O94768)
T1 sequence (O94768 1-372): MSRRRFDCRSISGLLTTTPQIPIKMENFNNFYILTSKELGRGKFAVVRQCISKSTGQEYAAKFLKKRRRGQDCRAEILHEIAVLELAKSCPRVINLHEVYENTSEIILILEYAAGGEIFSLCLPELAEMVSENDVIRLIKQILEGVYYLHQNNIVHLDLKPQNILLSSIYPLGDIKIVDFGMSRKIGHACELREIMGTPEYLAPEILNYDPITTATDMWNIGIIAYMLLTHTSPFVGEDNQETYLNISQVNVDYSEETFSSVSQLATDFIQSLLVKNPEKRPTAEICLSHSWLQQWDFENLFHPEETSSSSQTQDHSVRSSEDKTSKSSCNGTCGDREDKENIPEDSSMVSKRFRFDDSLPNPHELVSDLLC

LOK = LOK (Homo sapiens, UniProt O94804)
MAP3K5 = molecular target: T2, MAP3K5 (Homo sapiens, UniProt Q99683)
T2 sequence (Q99683 1-1374): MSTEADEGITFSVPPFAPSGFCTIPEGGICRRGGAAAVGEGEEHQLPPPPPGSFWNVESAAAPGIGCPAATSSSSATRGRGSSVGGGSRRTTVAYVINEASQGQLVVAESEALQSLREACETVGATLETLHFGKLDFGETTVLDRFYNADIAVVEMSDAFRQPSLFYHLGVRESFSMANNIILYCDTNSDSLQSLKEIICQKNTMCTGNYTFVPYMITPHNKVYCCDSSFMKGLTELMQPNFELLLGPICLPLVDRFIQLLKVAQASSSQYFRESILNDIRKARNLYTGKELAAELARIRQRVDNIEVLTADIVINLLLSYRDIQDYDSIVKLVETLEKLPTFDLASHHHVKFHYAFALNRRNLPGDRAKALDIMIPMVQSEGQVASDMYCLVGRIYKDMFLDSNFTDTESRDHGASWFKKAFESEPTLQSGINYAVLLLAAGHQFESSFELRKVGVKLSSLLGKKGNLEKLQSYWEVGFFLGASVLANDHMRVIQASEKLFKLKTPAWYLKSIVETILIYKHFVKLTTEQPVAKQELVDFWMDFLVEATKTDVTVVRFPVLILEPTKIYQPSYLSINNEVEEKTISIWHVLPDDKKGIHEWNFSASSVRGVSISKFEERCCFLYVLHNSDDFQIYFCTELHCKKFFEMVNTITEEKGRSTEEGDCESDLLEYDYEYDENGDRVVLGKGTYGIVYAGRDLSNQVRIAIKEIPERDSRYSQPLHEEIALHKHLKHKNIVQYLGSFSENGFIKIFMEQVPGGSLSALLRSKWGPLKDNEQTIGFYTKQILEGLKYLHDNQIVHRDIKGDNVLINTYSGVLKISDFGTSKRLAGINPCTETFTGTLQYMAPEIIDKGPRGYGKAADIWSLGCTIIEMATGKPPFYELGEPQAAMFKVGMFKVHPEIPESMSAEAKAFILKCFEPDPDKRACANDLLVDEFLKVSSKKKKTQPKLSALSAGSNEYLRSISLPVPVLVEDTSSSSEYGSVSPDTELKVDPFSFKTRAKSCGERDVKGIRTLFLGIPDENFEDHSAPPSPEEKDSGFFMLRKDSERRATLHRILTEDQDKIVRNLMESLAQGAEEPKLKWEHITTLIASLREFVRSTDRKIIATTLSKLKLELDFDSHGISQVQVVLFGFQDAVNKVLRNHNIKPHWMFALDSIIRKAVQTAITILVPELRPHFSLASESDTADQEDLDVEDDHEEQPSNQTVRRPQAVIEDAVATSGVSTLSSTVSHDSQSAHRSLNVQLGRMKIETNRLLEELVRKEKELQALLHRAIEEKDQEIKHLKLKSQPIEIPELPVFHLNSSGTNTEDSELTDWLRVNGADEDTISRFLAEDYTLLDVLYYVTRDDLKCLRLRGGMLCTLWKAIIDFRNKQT

MYT1 = molecular target: T3, MYT1 (Homo sapiens, UniProt Q99640)
T3 sequence (Q99640 1-499): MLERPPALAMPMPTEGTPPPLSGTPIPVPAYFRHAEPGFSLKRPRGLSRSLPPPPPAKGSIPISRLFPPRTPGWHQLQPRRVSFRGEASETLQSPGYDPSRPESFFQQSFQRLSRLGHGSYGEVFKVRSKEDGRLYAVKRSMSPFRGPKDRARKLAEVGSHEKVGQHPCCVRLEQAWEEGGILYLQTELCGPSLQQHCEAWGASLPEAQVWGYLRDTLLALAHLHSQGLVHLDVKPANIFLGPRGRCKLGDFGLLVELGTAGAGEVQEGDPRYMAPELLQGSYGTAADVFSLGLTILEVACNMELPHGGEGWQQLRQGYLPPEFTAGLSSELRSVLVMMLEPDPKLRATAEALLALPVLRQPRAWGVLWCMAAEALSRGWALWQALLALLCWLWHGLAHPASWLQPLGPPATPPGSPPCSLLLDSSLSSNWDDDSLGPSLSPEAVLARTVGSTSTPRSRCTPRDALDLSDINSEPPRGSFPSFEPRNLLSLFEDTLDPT

PIM3 = PIM3 (Homo sapiens, UniProt Q86V86)

Chain of CK2a1 (P68400 whole entry): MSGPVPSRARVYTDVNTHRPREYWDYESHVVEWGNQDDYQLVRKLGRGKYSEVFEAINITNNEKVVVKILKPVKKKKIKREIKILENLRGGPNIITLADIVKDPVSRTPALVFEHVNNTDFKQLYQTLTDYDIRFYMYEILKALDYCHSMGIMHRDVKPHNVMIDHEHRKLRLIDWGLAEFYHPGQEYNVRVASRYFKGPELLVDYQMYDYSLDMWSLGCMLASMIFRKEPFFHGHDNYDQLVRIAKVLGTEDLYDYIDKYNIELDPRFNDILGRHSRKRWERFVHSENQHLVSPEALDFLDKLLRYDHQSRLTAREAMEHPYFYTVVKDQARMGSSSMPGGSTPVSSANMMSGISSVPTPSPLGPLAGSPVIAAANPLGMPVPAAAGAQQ
Chain of LOK (O94804 whole entry): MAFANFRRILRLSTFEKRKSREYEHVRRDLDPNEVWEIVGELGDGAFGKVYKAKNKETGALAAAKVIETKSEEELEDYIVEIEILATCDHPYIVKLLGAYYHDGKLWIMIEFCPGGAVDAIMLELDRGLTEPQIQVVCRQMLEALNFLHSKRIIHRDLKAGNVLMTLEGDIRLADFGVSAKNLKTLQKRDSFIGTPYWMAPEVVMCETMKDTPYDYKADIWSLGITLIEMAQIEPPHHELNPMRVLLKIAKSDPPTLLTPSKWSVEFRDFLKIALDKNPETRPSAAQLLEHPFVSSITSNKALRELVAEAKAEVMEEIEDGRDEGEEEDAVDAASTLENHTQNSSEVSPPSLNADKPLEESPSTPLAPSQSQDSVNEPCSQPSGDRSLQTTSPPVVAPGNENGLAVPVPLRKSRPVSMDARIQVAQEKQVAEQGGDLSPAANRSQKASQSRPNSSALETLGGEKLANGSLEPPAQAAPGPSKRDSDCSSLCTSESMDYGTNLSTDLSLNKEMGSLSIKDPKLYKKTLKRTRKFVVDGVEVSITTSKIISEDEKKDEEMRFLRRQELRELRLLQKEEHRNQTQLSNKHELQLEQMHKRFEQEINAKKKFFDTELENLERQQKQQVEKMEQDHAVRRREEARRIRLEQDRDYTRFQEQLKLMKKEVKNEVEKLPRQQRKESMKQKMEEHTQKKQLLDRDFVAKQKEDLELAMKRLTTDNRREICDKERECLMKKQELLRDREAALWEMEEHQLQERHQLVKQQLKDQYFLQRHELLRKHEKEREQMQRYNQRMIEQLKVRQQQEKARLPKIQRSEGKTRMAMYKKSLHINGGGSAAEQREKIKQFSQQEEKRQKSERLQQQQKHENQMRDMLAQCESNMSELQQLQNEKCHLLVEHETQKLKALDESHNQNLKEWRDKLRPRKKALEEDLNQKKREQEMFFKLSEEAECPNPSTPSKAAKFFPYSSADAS
Chain of CK1e (P49674 whole entry): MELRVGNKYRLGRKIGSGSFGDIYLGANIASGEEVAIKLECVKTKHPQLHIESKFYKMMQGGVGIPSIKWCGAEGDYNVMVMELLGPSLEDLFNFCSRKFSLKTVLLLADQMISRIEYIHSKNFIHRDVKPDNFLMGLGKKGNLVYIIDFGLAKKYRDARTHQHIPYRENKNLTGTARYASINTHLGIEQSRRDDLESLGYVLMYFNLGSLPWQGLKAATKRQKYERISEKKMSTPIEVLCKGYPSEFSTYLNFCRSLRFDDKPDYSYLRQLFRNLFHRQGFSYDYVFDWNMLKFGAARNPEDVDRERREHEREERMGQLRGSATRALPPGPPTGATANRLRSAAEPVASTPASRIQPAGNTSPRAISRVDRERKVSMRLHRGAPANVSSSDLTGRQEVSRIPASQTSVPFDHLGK
Chain of CHK2 (O96017 whole entry): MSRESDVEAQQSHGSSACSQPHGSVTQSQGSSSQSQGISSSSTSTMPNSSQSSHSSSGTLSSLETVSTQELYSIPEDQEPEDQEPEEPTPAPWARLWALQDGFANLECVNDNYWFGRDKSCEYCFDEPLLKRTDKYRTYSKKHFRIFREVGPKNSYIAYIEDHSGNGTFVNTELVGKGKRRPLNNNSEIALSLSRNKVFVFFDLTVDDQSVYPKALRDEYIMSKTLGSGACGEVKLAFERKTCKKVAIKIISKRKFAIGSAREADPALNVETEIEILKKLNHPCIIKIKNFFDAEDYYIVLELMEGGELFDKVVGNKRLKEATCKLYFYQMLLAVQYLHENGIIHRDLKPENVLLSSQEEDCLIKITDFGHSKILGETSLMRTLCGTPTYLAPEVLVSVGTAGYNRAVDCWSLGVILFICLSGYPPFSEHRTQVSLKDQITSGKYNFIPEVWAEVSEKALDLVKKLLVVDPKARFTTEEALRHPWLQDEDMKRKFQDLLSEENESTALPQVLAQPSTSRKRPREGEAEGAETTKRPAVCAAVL

dTm 33 (CHK2): 10.4 °C
dTm 33 (CK1e): 6.9 °C
dTm 33 (CK2a1): -0.4 °C
dTm 33 (DRAK2): 10.5 °C
dTm 33 (LOK): -0.3 °C
dTm 33 (MAP3K5): 14.1 °C
dTm 33 (MYT1): -1.8 °C
dTm 33 (PIM3): 4.6 °C
SMILES: Cc1cccc(-c2ccc(-c3cc4cnc(Nc5ccc(F)c(CO)c5)nc4n(CCCCN)c3=O)c(Cl)c2)n1 [compound 33, 8-(4-Aminobutyl)-6-(2-chloro-4-(6-methylpyridin-2-yl)phenyl)-2-((4-fluoro-3-(hydroxymethyl)phenyl)amino)pyrido[2,3-d]pyrimidin-7(8H)-one]

dTm 34 (CHK2): 6.4 °C
dTm 34 (CK1e): 6.5 °C
dTm 34 (CK2a1): 0.5 °C
dTm 34 (DRAK2): 7.5 °C
dTm 34 (LOK): -0.3 °C
dTm 34 (MAP3K5): 10.3 °C
dTm 34 (MYT1): -2.7 °C
dTm 34 (PIM3): 2.4 °C
SMILES: COc1ccc(O)c(Nc2ncc3cc(-c4ccc(-c5cccc(C)n5)cc4Cl)c(=O)n(CCCCN)c3n2)c1 [compound 34, 8-(4-Aminobutyl)-6-(2-chloro-4-(6-methylpyridin-2-yl)phenyl)-2-((2-hydroxy-5-methoxy-phenyl)amino)pyrido[2,3-d]pyrimidin-7(8H)-one]

dTm 35 (CHK2): 13.0 °C
dTm 35 (CK1e): 6.6 °C
dTm 35 (CK2a1): -0.1 °C
dTm 35 (DRAK2): 7.0 °C
dTm 35 (LOK): -0.8 °C
dTm 35 (MAP3K5): 12.2 °C
dTm 35 (MYT1): -3.5 °C
dTm 35 (PIM3): -2.4 °C
SMILES: COc1cc(N2CCOCC2)ccc1Nc1ncc2cc(-c3ccc(-c4cccc(C)n4)cc3Cl)c(=O)n(CCCCN)c2n1 [compound 35, 8-(4-Aminobutyl)-6-(2-chloro-4-(6-methylpyridin-2-yl)phenyl)-2-((2-methoxy-4-morpholino-phenyl)amino)pyrido[2,3-d]pyrimidin-7(8H)-one]

dTm 36 (CHK2): 12.6 °C
dTm 36 (CK1e): 5.1 °C
dTm 36 (CK2a1): 0.2 °C
dTm 36 (DRAK2): 4.3 °C
dTm 36 (LOK): -0.4 °C
dTm 36 (MAP3K5): 10.1 °C
dTm 36 (MYT1): -2.8 °C
dTm 36 (PIM3): -2.1 °C
SMILES: COc1cc(N2CCN(C)CC2)ccc1Nc1ncc2cc(-c3ccc(-c4cccc(C)n4)cc3Cl)c(=O)n(CCCCN)c2n1 [compound 36, 8-(4-Aminobutyl)-6-(2-chloro-4-(6-methylpyridin-2-yl)phenyl)-2-((2-methoxy-4-(4-methylpiperazin-1-yl)phenyl)amino)pyrido[2,3-d]pyrimidin-7(8H)-one]
